The record followed here is ChEMBL document CHEMBL5465560, “Selectivity Literature for EUbOPEN Chemogenomic Library” (2024).

Test [1] addresses Ribosomal protein S6 kinase alpha-5 (Homo sapiens) (UniProt O75582). Conditions: at 10 µM.
Test [2] concerns the target 5'-AMP-activated protein kinase catalytic subunit alpha-1 (Homo sapiens, UniProt Q13131). As to the kind of experiment: Selectivity interaction (Ambit KINOMEscan and KiNATiv profiling in Jurkat cells) EUB0000090b PRKAA1. As to conditions: at 1 µM. It is filed as cell-based.
Test [3] has as its target MAP/microtubule affinity-regulating kinase 3 (Homo sapiens) (UniProt P27448). As to the kind of experiment: Selectivity interaction (KinomeScan (DiscoverX)) EUB0001079a MARK3. As to conditions: at 1 µM.
For test [4], the system named is Fibroblast growth factor receptor 3 (Homo sapiens), P22607 [G697C]. Briefly: (§1) Selectivity interaction (KinomeScan (DiscoverX)) EUB0000655a FGFR3. Conditions: at 10 µM.
Test [5] concerns the target Fibroblast growth factor receptor 3 (Homo sapiens, UniProt P22607). The test is described as §1. As to conditions: at 10 µM.
Test [6] concerns the target Fibroblast growth factor receptor 2 (Homo sapiens) (UniProt P21802). Briefly: Selectivity interaction (Kinase screening (Nanosyn)) EUB0000604a FGFR2.
Test [7] concerns the target Macrophage colony-stimulating factor 1 receptor (Homo sapiens) (UniProt P07333). Briefly: Selectivity interaction (Kinase panel (Carna Biosciences)) EUB0001542aTs CSF1R. As to conditions: at 1 µM.
Test [8] concerns the target Mitogen-activated protein kinase kinase kinase 9 (Homo sapiens) (UniProt P80192). As to the kind of experiment: Selectivity interaction (KinomeScan (DiscoverX)) EUB0000045b MAP3K9.
The target of test [9] is Ribosomal protein S6 kinase alpha-5 (Homo sapiens) (UniProt O75582). Briefly: Selectivity interaction (KinomeScan (DiscoverX)) EUB0000607a RPS6KA5. As to conditions: at 10 µM.
Chain of Ribosomal protein S6 kinase alpha-5 (Homo sapiens) (O75582 whole entry, looked up): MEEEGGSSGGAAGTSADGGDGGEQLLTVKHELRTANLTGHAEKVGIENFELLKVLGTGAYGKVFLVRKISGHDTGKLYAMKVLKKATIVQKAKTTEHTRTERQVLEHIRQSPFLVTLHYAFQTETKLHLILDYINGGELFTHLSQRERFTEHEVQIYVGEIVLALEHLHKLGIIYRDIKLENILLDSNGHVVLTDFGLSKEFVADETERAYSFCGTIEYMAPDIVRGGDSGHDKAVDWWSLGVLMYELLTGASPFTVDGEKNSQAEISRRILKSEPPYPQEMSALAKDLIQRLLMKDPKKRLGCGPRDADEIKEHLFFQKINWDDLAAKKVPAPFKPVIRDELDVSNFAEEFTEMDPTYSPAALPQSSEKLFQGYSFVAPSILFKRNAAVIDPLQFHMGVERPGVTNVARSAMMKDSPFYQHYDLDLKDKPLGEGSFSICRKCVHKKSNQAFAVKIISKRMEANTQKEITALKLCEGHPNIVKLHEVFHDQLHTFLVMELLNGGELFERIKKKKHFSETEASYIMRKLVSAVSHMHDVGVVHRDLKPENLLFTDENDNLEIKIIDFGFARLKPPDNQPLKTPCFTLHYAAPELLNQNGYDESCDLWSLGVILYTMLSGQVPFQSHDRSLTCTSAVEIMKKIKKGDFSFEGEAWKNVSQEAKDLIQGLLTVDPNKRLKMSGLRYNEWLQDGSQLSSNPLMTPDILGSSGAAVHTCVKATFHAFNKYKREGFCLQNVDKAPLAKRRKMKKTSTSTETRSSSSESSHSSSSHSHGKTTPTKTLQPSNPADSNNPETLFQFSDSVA
The target of test [10] is Mitogen-activated protein kinase kinase kinase 10 (Homo sapiens) (UniProt Q02779). As to the kind of experiment: Selectivity interaction (KinomeScan (DiscoverX)) EUB0000607a MAP3K10. Conditions: at 10 µM.
Test [11] has as its target Tyrosine-protein kinase Blk (Homo sapiens) (UniProt P51451). Briefly: Selectivity interaction (KinomeScan (DiscoverX)) EUB0000607a BLK. As to conditions: at 10 µM.
Test [12] addresses Serine/threonine-protein kinase pim-2 (Homo sapiens, UniProt Q9P1W9). Briefly: Selectivity interaction (KinomeScan (DiscoverX)) EUB0000607a PIM2. As to conditions: at 10 µM.
In test [13] the target is T1, Serine/threonine-protein kinase Sgk2 (Homo sapiens) (UniProt Q9HBY8).
T1 sequence (whole entry): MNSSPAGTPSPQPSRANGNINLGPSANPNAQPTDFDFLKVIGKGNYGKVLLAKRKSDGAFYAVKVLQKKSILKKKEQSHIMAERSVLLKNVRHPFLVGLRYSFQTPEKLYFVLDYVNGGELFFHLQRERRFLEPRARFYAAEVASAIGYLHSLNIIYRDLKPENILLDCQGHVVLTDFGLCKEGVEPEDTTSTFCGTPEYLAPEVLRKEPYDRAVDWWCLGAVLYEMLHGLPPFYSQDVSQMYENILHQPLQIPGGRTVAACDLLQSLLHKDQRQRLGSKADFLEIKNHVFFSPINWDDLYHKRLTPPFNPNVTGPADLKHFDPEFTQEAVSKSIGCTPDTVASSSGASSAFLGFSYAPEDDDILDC
Briefly: Selectivity interaction (ActivX KiNativ screen (kinase selectivity in THP-1 cell lysates)) EUB0000639a SGK2. The class given is subcellular. As to conditions: lysate.

Test [14] has as its target Mitogen-activated protein kinase kinase kinase kinase 5 (Homo sapiens) (UniProt Q9Y4K4). As to the kind of experiment: Selectivity interaction (Kinase panel (Invitrogen)) EUB0000639a MAP4K5. As to conditions: at 200 nM.
Test [15] addresses TRAF2 and NCK-interacting protein kinase (Homo sapiens) (UniProt Q9UKE5). Briefly: Selectivity interaction (KinomeScan (DiscoverX)) EUB0000595a TNIK. Conditions: at 10 µM.
The target of test [16] is T2, MAP/microtubule affinity-regulating kinase 4 (Homo sapiens) (UniProt Q96L34).
T2 sequence (whole entry): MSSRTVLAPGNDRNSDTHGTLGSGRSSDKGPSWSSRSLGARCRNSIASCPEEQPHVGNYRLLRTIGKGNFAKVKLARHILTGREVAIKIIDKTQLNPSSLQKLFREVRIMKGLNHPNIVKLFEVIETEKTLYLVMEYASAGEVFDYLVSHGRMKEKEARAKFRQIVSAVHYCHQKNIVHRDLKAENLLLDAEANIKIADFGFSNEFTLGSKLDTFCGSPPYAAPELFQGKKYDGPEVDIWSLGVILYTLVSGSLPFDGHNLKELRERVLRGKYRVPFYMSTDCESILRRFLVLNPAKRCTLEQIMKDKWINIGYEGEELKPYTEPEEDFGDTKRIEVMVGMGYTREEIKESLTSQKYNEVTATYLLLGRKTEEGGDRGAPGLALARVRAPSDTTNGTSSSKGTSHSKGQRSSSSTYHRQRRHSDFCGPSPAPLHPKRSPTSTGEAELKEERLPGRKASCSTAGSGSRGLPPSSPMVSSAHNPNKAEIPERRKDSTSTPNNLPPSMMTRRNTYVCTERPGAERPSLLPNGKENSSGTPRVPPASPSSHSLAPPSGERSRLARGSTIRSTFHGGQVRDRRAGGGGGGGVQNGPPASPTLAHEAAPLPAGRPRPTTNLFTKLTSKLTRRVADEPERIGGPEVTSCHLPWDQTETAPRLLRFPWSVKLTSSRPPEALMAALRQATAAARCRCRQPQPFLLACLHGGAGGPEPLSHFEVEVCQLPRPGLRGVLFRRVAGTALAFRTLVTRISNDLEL
Briefly: Selectivity interaction (KinomeScan (DiscoverX)) EUB0001619a MARK4. Conditions: at 1 µM.

Chain of Mitogen-activated protein kinase kinase kinase 9 (Homo sapiens) (P80192 whole entry, looked up): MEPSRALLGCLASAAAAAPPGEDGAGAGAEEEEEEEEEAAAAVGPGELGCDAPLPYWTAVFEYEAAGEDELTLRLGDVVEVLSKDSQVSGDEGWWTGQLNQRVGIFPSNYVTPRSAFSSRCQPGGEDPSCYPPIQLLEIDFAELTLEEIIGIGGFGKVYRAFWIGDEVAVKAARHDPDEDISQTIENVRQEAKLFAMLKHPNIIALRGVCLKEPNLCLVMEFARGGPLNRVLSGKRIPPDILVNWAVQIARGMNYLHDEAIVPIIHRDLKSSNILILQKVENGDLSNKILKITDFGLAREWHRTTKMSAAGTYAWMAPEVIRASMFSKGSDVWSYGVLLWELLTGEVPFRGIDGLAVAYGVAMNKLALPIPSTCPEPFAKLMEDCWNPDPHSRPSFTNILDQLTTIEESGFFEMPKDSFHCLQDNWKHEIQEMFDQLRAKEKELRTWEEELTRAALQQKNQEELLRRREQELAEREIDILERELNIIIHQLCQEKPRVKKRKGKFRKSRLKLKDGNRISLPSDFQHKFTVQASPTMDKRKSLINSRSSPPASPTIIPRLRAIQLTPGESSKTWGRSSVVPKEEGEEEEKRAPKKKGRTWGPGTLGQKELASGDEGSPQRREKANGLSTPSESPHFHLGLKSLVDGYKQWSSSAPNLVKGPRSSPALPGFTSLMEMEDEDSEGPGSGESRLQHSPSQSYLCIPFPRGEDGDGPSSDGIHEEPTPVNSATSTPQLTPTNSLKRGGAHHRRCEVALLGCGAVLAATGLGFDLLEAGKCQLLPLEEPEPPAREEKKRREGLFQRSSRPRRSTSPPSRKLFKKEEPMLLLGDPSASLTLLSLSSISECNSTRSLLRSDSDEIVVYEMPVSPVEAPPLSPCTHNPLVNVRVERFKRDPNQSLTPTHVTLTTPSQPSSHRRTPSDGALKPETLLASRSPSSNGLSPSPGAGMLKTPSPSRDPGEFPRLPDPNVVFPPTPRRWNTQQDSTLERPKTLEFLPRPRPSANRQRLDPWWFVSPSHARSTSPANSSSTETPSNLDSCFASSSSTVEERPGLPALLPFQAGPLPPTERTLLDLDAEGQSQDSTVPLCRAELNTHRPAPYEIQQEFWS
Chain of Fibroblast growth factor receptor 3 (P22607 23-806 limits assumed): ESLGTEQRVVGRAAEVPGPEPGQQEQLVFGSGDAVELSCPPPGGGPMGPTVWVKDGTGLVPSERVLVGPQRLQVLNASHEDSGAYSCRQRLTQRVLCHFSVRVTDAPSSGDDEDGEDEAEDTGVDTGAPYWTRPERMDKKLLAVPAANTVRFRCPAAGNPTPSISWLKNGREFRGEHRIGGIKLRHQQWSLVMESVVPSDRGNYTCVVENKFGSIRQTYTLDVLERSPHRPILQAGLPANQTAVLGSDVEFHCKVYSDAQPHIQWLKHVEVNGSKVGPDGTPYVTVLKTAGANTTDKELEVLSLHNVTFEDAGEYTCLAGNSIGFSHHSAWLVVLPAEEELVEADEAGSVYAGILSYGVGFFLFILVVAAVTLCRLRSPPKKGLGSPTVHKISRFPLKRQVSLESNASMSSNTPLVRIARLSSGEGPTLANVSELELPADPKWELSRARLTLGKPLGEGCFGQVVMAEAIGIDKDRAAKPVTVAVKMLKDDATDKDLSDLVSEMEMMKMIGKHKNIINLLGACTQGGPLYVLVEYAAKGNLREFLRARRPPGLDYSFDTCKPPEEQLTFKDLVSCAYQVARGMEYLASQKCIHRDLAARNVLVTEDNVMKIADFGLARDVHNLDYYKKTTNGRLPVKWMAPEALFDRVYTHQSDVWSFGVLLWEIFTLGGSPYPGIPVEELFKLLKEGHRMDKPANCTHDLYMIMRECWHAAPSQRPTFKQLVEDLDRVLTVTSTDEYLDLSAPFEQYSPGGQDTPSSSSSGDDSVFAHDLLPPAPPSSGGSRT
Chain of Fibroblast growth factor receptor 2 (Homo sapiens) (P21802 22-821 limits assumed): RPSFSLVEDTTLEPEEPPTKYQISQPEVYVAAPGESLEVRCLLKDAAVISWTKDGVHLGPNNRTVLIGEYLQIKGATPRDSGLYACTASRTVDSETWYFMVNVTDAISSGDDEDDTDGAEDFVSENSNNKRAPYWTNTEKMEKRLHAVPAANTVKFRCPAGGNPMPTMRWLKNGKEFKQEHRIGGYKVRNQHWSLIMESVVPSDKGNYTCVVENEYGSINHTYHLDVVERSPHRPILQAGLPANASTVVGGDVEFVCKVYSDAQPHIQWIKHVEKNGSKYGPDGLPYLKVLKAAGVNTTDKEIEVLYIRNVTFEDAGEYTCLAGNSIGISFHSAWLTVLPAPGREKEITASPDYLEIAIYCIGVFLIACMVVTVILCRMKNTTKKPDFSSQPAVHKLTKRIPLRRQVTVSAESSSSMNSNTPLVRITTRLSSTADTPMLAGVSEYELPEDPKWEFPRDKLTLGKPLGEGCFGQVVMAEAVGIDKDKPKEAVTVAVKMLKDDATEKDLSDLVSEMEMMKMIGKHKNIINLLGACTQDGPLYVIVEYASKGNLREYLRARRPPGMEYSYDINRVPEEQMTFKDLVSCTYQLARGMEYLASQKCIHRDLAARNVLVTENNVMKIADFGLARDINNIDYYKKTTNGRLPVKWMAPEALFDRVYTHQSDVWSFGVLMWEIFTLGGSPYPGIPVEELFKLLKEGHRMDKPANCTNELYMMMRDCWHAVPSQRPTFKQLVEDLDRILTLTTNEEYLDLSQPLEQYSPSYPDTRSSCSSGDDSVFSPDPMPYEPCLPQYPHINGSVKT
Chain of Serine/threonine-protein kinase pim-2 (Q9P1W9 whole entry, looked up): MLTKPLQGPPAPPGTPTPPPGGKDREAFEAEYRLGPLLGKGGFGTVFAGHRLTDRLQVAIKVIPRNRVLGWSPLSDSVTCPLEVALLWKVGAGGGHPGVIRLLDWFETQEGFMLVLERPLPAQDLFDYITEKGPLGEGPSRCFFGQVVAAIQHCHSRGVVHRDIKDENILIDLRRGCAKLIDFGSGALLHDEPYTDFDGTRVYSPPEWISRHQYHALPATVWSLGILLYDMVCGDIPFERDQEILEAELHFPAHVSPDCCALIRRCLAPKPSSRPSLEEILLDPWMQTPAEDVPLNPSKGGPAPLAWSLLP
Chain of Mitogen-activated protein kinase kinase kinase kinase 5 (Homo sapiens) (Q9Y4K4 whole entry, looked up): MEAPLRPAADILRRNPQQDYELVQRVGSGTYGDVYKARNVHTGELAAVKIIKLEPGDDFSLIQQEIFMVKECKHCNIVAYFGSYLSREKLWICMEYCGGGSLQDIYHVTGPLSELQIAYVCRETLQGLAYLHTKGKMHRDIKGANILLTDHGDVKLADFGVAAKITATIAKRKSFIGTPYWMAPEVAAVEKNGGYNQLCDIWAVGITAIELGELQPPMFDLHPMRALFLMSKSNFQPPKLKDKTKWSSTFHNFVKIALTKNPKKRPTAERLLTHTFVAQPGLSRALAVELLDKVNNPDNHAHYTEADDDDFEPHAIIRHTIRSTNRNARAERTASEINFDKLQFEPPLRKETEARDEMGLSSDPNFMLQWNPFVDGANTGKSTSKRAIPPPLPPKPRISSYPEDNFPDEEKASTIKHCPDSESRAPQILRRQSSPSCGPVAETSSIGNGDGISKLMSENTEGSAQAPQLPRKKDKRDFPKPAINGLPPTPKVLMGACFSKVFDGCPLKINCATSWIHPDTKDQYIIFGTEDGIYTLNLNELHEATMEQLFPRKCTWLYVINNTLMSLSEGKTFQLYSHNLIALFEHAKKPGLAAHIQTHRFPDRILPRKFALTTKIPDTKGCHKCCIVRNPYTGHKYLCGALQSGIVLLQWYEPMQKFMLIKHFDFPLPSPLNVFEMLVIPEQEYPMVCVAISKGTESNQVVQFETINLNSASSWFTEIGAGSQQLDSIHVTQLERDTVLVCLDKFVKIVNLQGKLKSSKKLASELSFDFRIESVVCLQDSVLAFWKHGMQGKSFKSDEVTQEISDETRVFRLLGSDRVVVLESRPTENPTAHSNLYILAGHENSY

`Cc1cc([C@@H](C)Nc2ccccc2C(=O)O)c2nc(N3CCOCC3)cc(=O)n2c1` [AZD-6482] had a % of control in test [1] of 91%. For the compound `CN(C)C/C=C/C(=O)Nc1ccc(C(=O)N2CCCC(Nc3ncc(Cl)c(-c4c[nH]c5ccccc45)n3)C2)cc1` (stereo unspecified), the % of control in [2] was determined as 79%. For `Nc1cnc(N2CCc3cc(S(=O)(=O)Nc4c(F)cc(Cl)cc4F)cc(N4CCCC4=O)c32)nc1` [TP-020n], the % of control in test [3] came out at 100%.

As for `CN(C)CCOc1ccc(-c2nc(-c3ccncc3)c(-c3ccc4c(c3)CC/C4=N\O)[nH]2)cc1`, the % of control in test [4] and in test [5] was 100% each time.

Take `Cc1cnc(Nc2ccc(F)cc2Cl)nc1-c1c[nH]c(C(=O)N[C@H](CO)c2cccc(Cl)c2)c1`: the % of inhibition in test [6] came to 12%.

As for `Cn1cc(Nc2nccc(N3CC4CCC(C3)N4C(=O)[C@@H]3CC3(F)F)n2)cn1`, the % of inhibition in test [7] is 59%. Take `C=CC(=O)Nc1cc(-n2c(=O)ccc3cnc4ccc(-c5ccc(NS(C)(=O)=O)cc5)cc4c32)ccc1C`: the % of control in test [8] (at 1 µM) is 100%; in [8] (at 10 µM) it was 83%. Regarding `CNC(=O)Nc1ccc(-c2nc(N3CC4CCC(C3)O4)c3cnn(C4CCC5(CC4)OCCO5)c3n2)cc1`, the % of control in test [9] came to 86%; in test [10], 100%; in [11] it was 96%; in test [12], 74%.

Take `CC[C@@H]1[C@H](F)C(=O)N[C@@H]1COc1nccc2cc(C(N)=O)c(OC)cc12` [ZIMLOVISERTIB]: the % of inhibition in test [13] (at 0.01 µM) was -1%; in test [13] (at 0.04 µM), 3.1%; in test [13] (at 0.2 µM) it was -5.7%; in test [13] (at 1 µM), -1%; in test [13] (at 5 µM), -1.4%; in [14], 10%.

`COCC(=O)NC/C=C/c1ccc2ncnc(Nc3ccc(Oc4ccc(C)nc4)c(C)c3)c2c1` [CP-724714] registered a % of control in [15] of 89%.

For the compound `N#Cc1cccc(-c2c[nH]c3ncnc(N4CCOCC4)c23)c1`, the % of control in [16] came to 82%.
